Test results reported in US20260262643A1, “HERBICIDAL BENZOXAZINES” (FMC CORPORATION, priority 2022, published 2026).

Assays:
oat, wild [1] = assay: Test C preemergence; type: in vivo, Avena fatua; conditions: for Plant response rating, Oat, Wild: Preemergence; for Oat, Wild plant response rating: preemergence
How it was run: (§1)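 Seeds in loam–sand blend received preemergence directed soil spray of test chemicals in non-phytotoxic solvent with surfactant; postemergence treatment was applied at one- to two-leaf stage (2–10 cm). After 10 days in greenhouse, injury rated visually versus untreated controls, 0 (no effect) to 100 (complete control).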

pigweed, palmer [2] = assay: Test C postemergence; type: in vivo, Amaranthus palmeri; conditions: 10 days
How it was run: as §1

barnyardgrass [3] = assay: Test C preemergence; type: in vivo, Echinochloa crusgalli; conditions: for Plant response rating, Barnyardgrass: Preemergence; for Barnyardgrass plant response rating: preemergence
How it was run: as §1

horseweed = assay: Test C postemergence; type: in vivo, Erigeron canadensis; conditions: 10 days
How it was run: as §1

blackgrass [4] = assay: Test C postemergence; type: in vivo, Alopecurus myosuroides; conditions: 10 days
How it was run: as §1

ragweed [5] = assay: Test C postemergence; type: in vivo, Ambrosia artemisiifolia; conditions: 10 days
How it was run: as §1

rice = assay: Test D flooded paddy test; type: in vivo, Oryza sativa; conditions: 250 g ai/ha, applied to paddy water, visual rating after 13 to 14 days, scale 0 to 100 (0 no effect, 100 complete control)
How it was run: (§2)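 Plants grown to the 2-leaf stage; pots flooded to 3 cm above soil at treatment and held at that depth throughout. Test compounds applied directly to the paddy water. After 13 to 14 days in a greenhouse, response was rated visually versus controls on a 0 (no effect) to 100 (complete control) scale.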

blackgrass [6] = assay: Test C preemergence; type: in vivo, Alopecurus myosuroides; conditions: for Plant response rating, Blackgrass: Preemergence; for Blackgrass plant response rating: preemergence
How it was run: as §1

green foxtail [7] = assay: Test C preemergence; type: in vivo, Setaria viridis; conditions: for Plant response rating, Foxtail, Green: Preemergence; for Foxtail, Green plant response rating: preemergence
How it was run: as §1

barnyardgrass [8] = assay: Test D flooded paddy test; type: in vivo, Echinochloa crus-galli; conditions: 250 g ai/ha, applied to paddy water, visual rating after 13 to 14 days, scale 0 to 100 (0 no effect, 100 complete control)
How it was run: as §2

pigweed, palmer [9] = assay: Test C preemergence; type: in vivo, Amaranthus palmeri; conditions: for Plant response rating, Pigweed, Palmer: Preemergence; for Pigweed, Palmer plant response rating: preemergence
How it was run: as §1

ryegrass, Italian [10] = assay: Test C postemergence; type: in vivo, Lolium multiflorum; conditions: 10 days
How it was run: as §1

ducksalad = assay: Test D flooded paddy test; type: in vivo, Heteranthera limosa; conditions: 250 g ai/ha, applied to paddy water, visual rating after 13 to 14 days, scale 0 to 100 (0 no effect, 100 complete control)
How it was run: as §2

ryegrass, Italian [11] = assay: Test C preemergence; type: in vivo, Lolium multiflorum; conditions: for Plant response rating, Ryegrass, Italian: Preemergence; for Ryegrass, Italian plant response rating: preemergence
How it was run: as §1

soybean [12] = assay: Test C preemergence; type: in vivo, Glycine max; conditions: for Plant response rating, Soybean: Preemergence; for Soybean plant response rating: preemergence
How it was run: as §1

kochia [13] = assay: Test C preemergence; type: in vivo, Bassia scoparia; conditions: for Plant response rating, Kochia: Preemergence; for Kochia plant response rating: preemergence
How it was run: as §1

wheat [14] = assay: Test C postemergence; type: in vivo, Triticum aestivum; conditions: 10 days
How it was run: as §1

ragweed [15] = assay: Test C preemergence; type: in vivo, Ambrosia artemisiifolia; conditions: for Plant response rating, Ragweed: Preemergence; for Ragweed plant response rating: preemergence
How it was run: as §1

oat, wild [16] = assay: Test C postemergence; type: in vivo, Avena fatua; conditions: 10 days
How it was run: as §1

green foxtail [17] = assay: Test C postemergence; type: in vivo, Setaria viridis; conditions: 10 days
How it was run: as §1

soybean [18] = assay: Test C postemergence; type: in vivo, Glycine max; conditions: 10 days
How it was run: as §1

kochia [19] = assay: Test C postemergence; type: in vivo, Bassia scoparia; conditions: 10 days
How it was run: as §1

wheat [20] = assay: Test C preemergence; type: in vivo, Triticum aestivum; conditions: for Plant response rating, Wheat: Preemergence; for Wheat plant response rating: preemergence
How it was run: as §1

barnyardgrass [21] = assay: Test C postemergence; type: in vivo, Echinochloa crusgalli; conditions: 10 days
How it was run: as §1

corn [22] = assay: Test C postemergence; type: in vivo, Zea mays; conditions: 10 days
How it was run: as §1

corn [23] = assay: Test C preemergence; type: in vivo, Zea mays; conditions: for Plant response rating, Corn: Preemergence; for Corn plant response rating: preemergence
How it was run: as §1

sedge, umbrella = assay: Test D flooded paddy test; type: in vivo, Cyperus difformis; conditions: 250 g ai/ha, applied to paddy water, visual rating after 13 to 14 days, scale 0 to 100 (0 no effect, 100 complete control)
How it was run: as §2

[24] = 500 g ai/ha, visual rating after 10 days, 0 to 100 scale (0 no effect, 100 complete control)
[25] = Test C, 125 g ai/ha, 0 to 100 scale (0 no effect, 100 complete control)
[26] = 125 g ai/ha, postemergence, 0 to 100 scale, 0 no effect, 100 complete control
[27] = Postemergence, 500 g ai/ha, visual 0 to 100 scale (0 no effect, 100 complete control)
[28] = 500 g ai/ha, 0 to 100 scale (0 no effect, 100 complete control)
[29] = 125 g ai/ha, 0 to 100 scale, 0 no effect, 100 complete control
[30] = 500 g ai/ha, postemergence, 0 to 100 scale (0 no effect, 100 complete control)
[31] = Postemergence, 125 g ai/ha, 0 to 100 scale (0 no effect, 100 complete control)

COc1cc(-n2cnc(C(C)C)n2)cc(C(=O)N2C[C@H](C)Oc3c(Cl)cccc32)c1OC [Compound 194, [(2S)-8-chloro-2-methyl-2,3-dihydro-1,4-benzoxazin-4-yl]-[5-(3-isopropyl-1,2,4-triazol-1-yl)-2,3-dimethoxy-phenyl]methanone]
Plant response rating, Oat, Wild (oat, wild [1]; [24]): 90 | Oat, Wild plant response rating (oat, wild [1]; [25]): 20 | Plant response rating, Pigweed, Palmer (pigweed, palmer [2]; [26]): 0 | Plant response rating, Pigweed, Palmer (pigweed, palmer [2]; [27]): 20 | Plant response rating, Barnyardgrass (barnyardgrass [3]; [24]): 70 | Barnyardgrass plant response rating (barnyardgrass [3]; [25]): 10 | Plant response rating, Horseweed (horseweed; [26]): 0 | Plant response rating, Horseweed (horseweed; [27]): 0 | pest or weed control at 125 g/ha (blackgrass [4]; Alopecurus myosuroides, post-emergence, 240 h, 125 g ai/ha, postemergence, 0 to 100 scale (0 no effect, 100 complete control), read-out: Plant response rating, Blackgrass): 0% | pest or weed control at 500 g/ha (blackgrass [4]; Alopecurus myosuroides, post-emergence, 240 h, Postemergence, 500 g ai/ha, visual 0 to 100 scale (0 no effect, 100 complete control), read-out: Plant response rating, Blackgrass): 30% | Plant response rating, Ragweed (ragweed [5]; [26]): 0 | Plant response rating, Ragweed (ragweed [5]; [27]): 50 | Plant response rating, Rice (Flood) (rice): 0 | Plant response rating, Blackgrass (blackgrass [6]; [24]): 80 | Blackgrass plant response rating (blackgrass [6]; [25]): 20 | Plant response rating, Foxtail, Green (green foxtail [7]; [24]): 100 | Foxtail, Green plant response rating (green foxtail [7]; [25]): 70 | Plant response rating, Barnyardgrass (Flood) (barnyardgrass [8]): 0 | Plant response rating, Pigweed, Palmer (pigweed, palmer [9]; [24]): 30 | Pigweed, Palmer plant response rating (pigweed, palmer [9]; [25]): 20 | Plant response rating, Ryegrass, Italian (ryegrass, Italian [10]; [26]): 30 | Plant response rating, Ryegrass, Italian (ryegrass, Italian [10]; [27]): 70 | Plant response rating, Ducksalad (Flood) (ducksalad): 0 | Plant response rating, Ryegrass, Italian (ryegrass, Italian [11]; [24]): 90 | Ryegrass, Italian plant response rating (ryegrass, Italian [11]; [25]): 70 | Plant response rating, Soybean (soybean [12]; [24]): 10 | Soybean plant response rating (soybean [12]; [25]): 10 | Plant response rating, Kochia (kochia [13]; [24]): 0 | Kochia plant response rating (kochia [13]; [25]): 0 | Plant response rating, Wheat (wheat [14]; [26]): 20 | Plant response rating, Wheat (wheat [14]; [27]): 20 | Plant response rating, Ragweed (ragweed [15]; [24]): 20 | Ragweed plant response rating (ragweed [15]; [25]): 20 | Plant response rating, Oat, Wild (oat, wild [16]; [26]): 0 | Plant response rating, Oat, Wild (oat, wild [16]; [27]): 20 | Plant response rating, Foxtail, Green (green foxtail [17]; [26]): 10 | Plant response rating, Foxtail, Green (green foxtail [17]; [27]): 50 | Plant response rating, Soybean (soybean [18]; [26]): 90 | Plant response rating, Soybean (soybean [18]; [27]): 90 | Plant response rating, Kochia (kochia [19]; [26]): 10 | Plant response rating, Kochia (kochia [19]; [27]): 80 | Plant response rating, Wheat (wheat [20]; [24]): 50 | Wheat plant response rating (wheat [20]; [25]): 0 | Plant response rating, Barnyardgrass (barnyardgrass [21]; [26]): 10 | Plant response rating, Barnyardgrass (barnyardgrass [21]; [27]): 30 | Corn plant response rating (crop injury, 0 = no effect, 100 = complete kill) at 125 g/ha (corn [22]; Zea mays, post-emergence, 240 h, 125 g ai/ha, postemergence, 0 to 100 scale (0 no effect, 100 complete control)): 10% | Corn plant response rating (crop injury, 0 = no effect, 100 = complete kill) at 500 g/ha (corn [22]; Zea mays, post-emergence, 240 h, Postemergence, 500 g ai/ha, visual 0 to 100 scale (0 no effect, 100 complete control)): 20% | Plant response rating, Corn (corn [23]; [24]): 30 | Corn plant response rating (corn [23]; [25]): 0 | Plant response rating, Sedge, Umbrella (Flood) (sedge, umbrella): 0

Cc1ccc(-n2cnc(C3(C#N)CCC3)n2)cc1C(=O)N1C[C@H](C)Oc2c(Cl)cccc21 [Compound 402]
Oat, Wild plant response rating (oat, wild [1]; [28]): 40 | Plant response rating, Oat, Wild (oat, wild [1]; [29]): 20 | Plant response rating, Pigweed, Palmer (pigweed, palmer [2]; [30]): 100 | Plant response rating, Pigweed, Palmer (pigweed, palmer [2]; [31]): 90 | Barnyardgrass plant response rating (barnyardgrass [3]; [28]): 100 | Plant response rating, Barnyardgrass (barnyardgrass [3]; [29]): 60 | Plant response rating, Horseweed (horseweed; [30]): 70 | Plant response rating, Horseweed (horseweed; [31]): 50 | Plant response rating, Blackgrass (blackgrass [4]; [30]): 60 | Plant response rating, Blackgrass (blackgrass [4]; [31]): 20 | Plant response rating, Ragweed (ragweed [5]; [31]): 90 | Plant response rating, Rice (Flood) (rice): 0 | Blackgrass plant response rating (blackgrass [6]; [28]): 30 | Plant response rating, Blackgrass (blackgrass [6]; [29]): 30 | Foxtail, Green plant response rating (green foxtail [7]; [28]): 100 | Plant response rating, Foxtail, Green (green foxtail [7]; [29]): 100 | Plant response rating, Barnyardgrass (Flood) (barnyardgrass [8]): 25 | Pigweed, Palmer plant response rating (pigweed, palmer [9]; [28]): 100 | Plant response rating, Pigweed, Palmer (pigweed, palmer [9]; [29]): 100 | Plant response rating, Ryegrass, Italian (ryegrass, Italian [10]; [31]): 30 | Plant response rating, Ducksalad (Flood) (ducksalad): 45 | Ryegrass, Italian plant response rating (ryegrass, Italian [11]; [28]): 80 | Plant response rating, Ryegrass, Italian (ryegrass, Italian [11]; [29]): 70 | Soybean plant response rating (soybean [12]; [28]): 40 | Plant response rating, Soybean (soybean [12]; [29]): 20 | Kochia plant response rating (kochia [13]; [28]): 90 | Plant response rating, Kochia (kochia [13]; [29]): 90 | Plant response rating, Wheat (wheat [14]; [31]): 20 | Ragweed plant response rating (ragweed [15]; [28]): 50 | Plant response rating, Ragweed (ragweed [15]; [29]): 0 | Plant response rating, Oat, Wild (oat, wild [16]; [30]): 20 | Plant response rating, Oat, Wild (oat, wild [16]; [31]): 0 | Plant response rating, Foxtail, Green (green foxtail [17]; [30]): 90 | Plant response rating, Foxtail, Green (green foxtail [17]; [31]): 70 | Plant response rating, Soybean (soybean [18]; [31]): 40 | Plant response rating, Kochia (kochia [19]; [30]): 90 | Plant response rating, Kochia (kochia [19]; [31]): 90 | Wheat plant response rating (wheat [20]; [28]): 30 | Plant response rating, Wheat (wheat [20]; [29]): 0 | Plant response rating, Barnyardgrass (barnyardgrass [21]; [30]): 50 | Plant response rating, Barnyardgrass (barnyardgrass [21]; [31]): 20 | Plant response rating, Corn (corn [22]; [30]): 60 | Plant response rating, Corn (corn [22]; [31]): 10 | Corn plant response rating (corn [23]; [28]): 20 | Plant response rating, Corn (corn [23]; [29]): 0 | Plant response rating, Sedge, Umbrella (Flood) (sedge, umbrella): 25
